According to BindingDB's records for doi:10.1016/j.bmc.2020.115644 (Umass Medical School, 2020):
Counter-ions that a name gives are not always drawn.

Legend:
NAD(+) hydrolase SARM1 [1] = target: T1, NAD(+) hydrolase SARM1 (Homo sapiens, UniProt Q6SZW1); assay: Inhibition of recombinant human SARM1 TIR domain (561 to 724 residues) expressed in Escherichia coli C43 (DE3) cells lysates using ENAD as substrate preincubated for 20 mins followed by ENAD addition and measured at 15 sec interval for 15 mins
T1 sequence (Q6SZW1 whole entry): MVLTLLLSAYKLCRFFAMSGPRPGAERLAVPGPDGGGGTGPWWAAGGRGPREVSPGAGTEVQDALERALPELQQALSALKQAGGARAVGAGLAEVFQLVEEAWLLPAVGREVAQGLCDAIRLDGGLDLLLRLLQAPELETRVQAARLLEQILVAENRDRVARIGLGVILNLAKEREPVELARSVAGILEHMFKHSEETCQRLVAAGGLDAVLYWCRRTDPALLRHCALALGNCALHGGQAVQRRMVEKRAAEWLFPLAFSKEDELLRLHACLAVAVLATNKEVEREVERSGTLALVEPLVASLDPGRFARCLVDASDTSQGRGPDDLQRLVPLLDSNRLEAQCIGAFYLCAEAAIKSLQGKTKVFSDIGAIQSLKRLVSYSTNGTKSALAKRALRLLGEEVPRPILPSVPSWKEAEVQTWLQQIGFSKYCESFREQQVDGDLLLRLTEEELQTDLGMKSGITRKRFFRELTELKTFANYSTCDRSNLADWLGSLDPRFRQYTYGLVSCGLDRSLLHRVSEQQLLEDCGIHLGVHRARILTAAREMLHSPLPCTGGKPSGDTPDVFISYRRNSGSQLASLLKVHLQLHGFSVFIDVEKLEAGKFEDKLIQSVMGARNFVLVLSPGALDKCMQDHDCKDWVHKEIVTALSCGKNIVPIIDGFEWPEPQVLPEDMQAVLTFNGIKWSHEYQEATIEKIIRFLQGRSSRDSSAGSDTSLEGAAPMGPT

NAD(+) hydrolase SARM1 [2] = target: T1, NAD(+) hydrolase SARM1; assay: Noncompetitive inhibition of recombinant human SARM1 TIR domain (561 to 724 residues) expressed in Escherichia coli C43 (DE3) cells lysates assessed as EADPR formation using ENAD as substrate preincubated for 20 mins followed by ENAD addition and measured at 15 sec interval for 1 hr

Structure (SMILES) | IC50 (NAD(+) hydrolase SARM1 [1]) | Ki (NAD(+) hydrolase SARM1 [2])
Nc1ccc(/N=N/c2ccccc2)c(N)n1 [NC 150] | 145 µM | 
C[C@H]1c2cccc(O)c2C(=O)C2=C(O)[C@]3(O)C(=O)C(C(N)=O)=C(O)[C@@H](N(C)C)[C@@H]3[C@@H](O)[C@@H]21 [DOXYCYCLINE HYDROCHLORIDE] | 145 µM | 280 µM
